Data: US9642922B2, “Caspase-triggered nano-aggregation probes and methods of use” (The Board of Trustees of the Leland Stanford Junior …, priority 2013, dated 2017)
Numbered stars: 1 amine (or outer) side, 2 acyl side, 3 side chain; on linkers, the order of the positions; unused ones are H or OH. Square brackets hold non-standard residues; d marks the D form. Peptide text beside a SMILES is read from it. * marks the point of attachment. DOTA = O=C(O)CN1CCN(CC(=O)O)CCN(CC(=O)*)CCN(CC(=O)O)CC1; X1 = O=C(C1CSC(c2nc3ccc(N[*:1])cc3s2)=N1)[*:2]; X2 = N#Cc1ccc2cc(OCCCN*)ccc2n1; SEt = CCS*

Columns and labels:
[1] = biological target: T1, recombinant human caspase-7 (Homo sapiens, UniProt P55210); assay: HPLC enzyme specificity assay of C-SNAF, caspase-7; assay type: biochemical; details: 25 μM probe, 0.735 μg/ml enzyme
T1 construct: purchased Calbiochem; host or cells: E. coli
T1 sequence (P55210 24-198 limits assumed): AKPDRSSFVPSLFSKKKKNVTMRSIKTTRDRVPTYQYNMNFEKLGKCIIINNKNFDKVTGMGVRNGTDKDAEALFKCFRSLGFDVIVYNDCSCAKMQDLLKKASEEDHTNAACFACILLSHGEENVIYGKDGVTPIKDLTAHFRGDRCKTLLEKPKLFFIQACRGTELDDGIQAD
T1 sequence (P55210 207-303 limits assumed): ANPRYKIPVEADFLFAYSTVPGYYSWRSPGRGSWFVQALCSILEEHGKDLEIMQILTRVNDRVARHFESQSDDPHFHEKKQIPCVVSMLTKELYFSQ
Procedure: (§1) The specificity of C-SNAF towards other representative cysteine proteases such as caspase-7, caspase-9, cathepsin B, and legumain was examined.
(§2) Caspase (human, recombinant from E. coli) assays were performed for caspase-3 (4.9×10^−3 U; 7.35×10^−4 mg, Sigma), −7 (18.3 U; 7.35×10^−4 mg, Calbiochem), and −9 (0.3 U; 7.35×10^−4 mg, Calbiochem). All caspase assays were conducted in caspase buffer with 50 mM HEPES, 100 mM NaCl, 1 mM EDTA, 10 mM TCEP, 10% glycerol, and 0.1% CHAPS at pH 7.4. Cathepsin B (human liver; 0.27 U; 7.35×10^−4 mg, Calbiochem) and Legumain (human, recombinant from mouse myeloma cell line; >250 pmol/min/μg; 7.35×10^−4 mg, R&D Systems) were conducted in reaction buffer with 50 mM sodium acetate, 50 mM NaCl, 0.5 mM EDTA and 10 mM TCEP at pH 5.5. C-SNAF was diluted in the respective enzyme reaction buffer (25 μM, 1 mL) and remained at room temperature for 10 min, to which was then added the respective enzymes. Reactions were performed at 37° C., and monitored by HPLC hourly. The percentage conversion of the reaction was calculated based on the percentage of peak area of C-SNAF-cycl in the HPLC trace at 675 nm UV detection, which indicated the efficacy of enzyme cleavage of C-SNAF.

[2] = tested on: DOX-induced apoptotic HeLa cells; assay: Flow cytometry of DOX-induced apoptotic HeLa cells labeled with probes; assay type: cell-based, human; details: 5 μM DOX, 2 μM probe, 24 h
Procedure: For the DOX-induced apoptotic cells, HeLa cells in 12-well plates were co-incubated with DOX (5 μM) and 2 μM C-SNAF, L-ctrl and D-ctrl, or 2 μM C-SNAF together with 50 μM Z-VAD-fmk for 24 h. After washing with PBS (1×) three times, the cells pellets were resuspended in 300 μL PBS, and applied for flow cytometry analysis using the Cy5.5 channels. The cell number for each flow cytometry analysis was approximately 5×10^3 to 10^4, and the data was processed using FlowJo software.

legumain [3] = biological target: T2, legumain (Homo sapiens, UniProt Q99538); assay: HPLC enzyme specificity assay of C-SNAF, legumain; assay type: biochemical; details: 25 μM probe, 0.735 μg/ml enzyme, pH 5.5
T2 construct: purchased R&D Systems; host or cells: mouse myeloma cell line
T2 sequence (Q99538 18-323): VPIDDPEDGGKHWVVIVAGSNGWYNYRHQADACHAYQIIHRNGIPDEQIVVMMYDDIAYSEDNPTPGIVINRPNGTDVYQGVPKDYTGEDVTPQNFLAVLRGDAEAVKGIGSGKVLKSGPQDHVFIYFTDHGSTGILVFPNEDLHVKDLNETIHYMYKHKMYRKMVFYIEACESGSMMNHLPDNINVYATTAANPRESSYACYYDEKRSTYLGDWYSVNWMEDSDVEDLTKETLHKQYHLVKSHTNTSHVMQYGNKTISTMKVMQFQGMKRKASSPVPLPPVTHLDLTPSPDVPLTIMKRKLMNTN
Procedure: as §1, §2

caspase-9 = biological target: T3, caspase-9 (Homo sapiens, UniProt P55211); assay: T1 measurement of probe 15 with caspase-9; assay type: biochemical; details: probe 208 μM, protease 50 nM, 1 T
T3 construct: purchased Calbiochem; host or cells: E. coli
T3 sequence (P55211 1-315 limits assumed): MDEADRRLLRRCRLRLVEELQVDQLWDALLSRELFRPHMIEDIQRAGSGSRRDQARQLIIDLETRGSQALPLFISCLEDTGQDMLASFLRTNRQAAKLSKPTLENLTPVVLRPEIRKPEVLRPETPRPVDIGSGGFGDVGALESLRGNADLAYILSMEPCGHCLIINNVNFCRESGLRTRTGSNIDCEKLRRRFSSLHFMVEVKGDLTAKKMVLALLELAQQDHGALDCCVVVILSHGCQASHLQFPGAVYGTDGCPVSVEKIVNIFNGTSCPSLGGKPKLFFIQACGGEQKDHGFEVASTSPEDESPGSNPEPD
Procedure: (§3) The enzyme specificity of probe 15 was studied by measuring the T1 value resulting from probe incubation (208 μM) with any of five relevant subcellular proteases (caspase-3, -7, -9, cathepsin B and legumain) in enzyme buffer. […] The reduced T1 value in solution was inhibited by the caspase inhibitor Z-VAD-fmk (50 μM).
Caspase (human, recombinant from E. coli) assays were performed for caspase-3 (4.9×10^−3 U; 7.35×10^−4 mg, Sigma), −7 (18.3 U; 7.35×10^−4 mg, Calbiochem), and −9 (0.3 U; 7.35×10^−4 mg, Calbiochem). All caspase assays were conducted in caspase buffer with 50 mM HEPES, 100 mM NaCl, 1 mM EDTA, 10 mM TCEP, 10% glycerol, and 0.1% CHAPS at pH 7.4.

legumain [4] = biological target: T2, legumain; assay: T1 measurement of probe 15 with legumain; assay type: biochemical; details: probe 208 μM, protease 50 nM, 1 T
Procedure: as §3
Cathepsin B (human liver; 0.27 U; 7.35×10^−4 mg, Calbiochem) and Legumain (human, recombinant from mouse myeloma cell line; >250 pmol/min/μg; 7.35×10^−4 mg, R&D Systems) were conducted in reaction buffer with 50 mM sodium acetate, 50 mM NaCl, 0.5 mM EDTA and 10 mM TCEP at pH 5.5. The C-SNAF was diluted in the respective enzyme reaction buffer (25 μM, 1 mL) and remained at room temperature for 10 min, to which was added respective enzymes.

subcutaneous HeLa tumors = assay: In vivo MR imaging of doxorubicin-treated HeLa tumors; design: species or system mouse
Procedure: Evaluation of activatable contrast agent probe 15 for MR imaging of caspase-3 activity in vivo was performed in nude mice bearing subcutaneous HeLa tumors. Tumors were implanted and grown for 10-15 days before receiving intratumoral injections of two doses of 0.2 mg doxorubicin separated by 2 days. Probe 15 or 1-ctrl (19) (0.1 mmol kg^−1) was injected intravenously the day before treatment (baseline) and four days post-treatment (treated). Spin-echo T1-weighted multislice MR images at 1 T were recorded before (pre-contrast) and every 4 min after contrast agent administration (post-contrast), and scanning was carried out for 4 h post-contrast for each mouse. Much brighter MR signals (T1 contrast) were observed 40 and 120 min after injection with probe 15 in treated tumors as compared to that in baseline tumors (FIG. 29A), or in treated tumors with 1-ctrl (19) (FIG. 29B).
In vivo MR imaging was performed on an Aspect M2 1T permanent magnet (Aspect Imaging, Shoham, Israel) using a 40 mm Transmit/Receive mouse body coil. During imaging, the animals were anaesthetized with isofluorane and their respiration and body temperature were constantly monitored. Intravenous contrast injection at 0.1 mmol/kg concentration was administered in a 100 μL volume for every imaging session. Multi-slice (312 μm in-plane, 12 slices with 1 mm thickness) T1-weighted spin echo images (TE/TR=8.9/250 ms, matrix 128×128, FOV=40 mm, NEX=6) were acquired, one before contrast injection and then every 4 min up to 4 h after contrast injection. A 1 mM Dotarem reference tube was inserted in the field of view to enable inter-session variability correction during post-processing. Each animal underwent two imaging session; one before DOX treatment (baseline), and one after DOX treatment (treated).
Acquired MR data were transferred as DICOM images to an offline workstation and ImageJ (NIH) was used for post processing and quantitative image analysis. This consisted of manual segmentation of tumor ROI for each slice, slice-wise normalization of mean tumor signal intensity with the 1 mM Dotarem reference standard to account for inter-session variability, followed by combining these normalized, slice-wise values to generate mean volumetric tumor signal intensities (SI) for each time point.
Signal enhancement was calculated at each time point as the difference between the tumor SI at that time point and the tumor SI in the pre-contrast (t=0) dataset. SE(t)=SI(t)−SI(t=0); for each mouse, for every session
This metric was used to quantify the difference in SE between the baseline (before DOX treatment) session and the treated session for each mouse, as a means to tease out the difference between the two contrast agents, probe 1 and 1-cntl (19) over the time course of the imaging session. % D(t)=[SE(t,treated)−SE(t,baseline)]/SE(t,baseline); for each mouse.

HeLa cell pellets = assay: MRI T1 of HeLa cell pellets at 1 T; assay type: cell-based, human; details: 250 μM, 24 h
Description: Thus, higher caspase-3 activity in apoptotic cells can trap probe 15 inside cells, resulting in higher MRI contrast for cell apoptosis imaging.

SMILES: CCSSC[C@@H](NC(=O)[C@H](CC(=O)O)NC(=O)[C@@H](NC(=O)[C@H](CCC(=O)O)NC(=O)[C@H](CC(=O)O)NC(C)=O)C(C)C)C(=O)N[C@@H](CCCCNC(=O)CCCCCN1C(=CC=CC=CC2=[N+](CC)c3ccc4c(S(=O)(=O)[O-])cc(S(=O)(=O)O)cc4c3C2(C)C)C(C)(C)c2c1ccc1c(S(=O)(=O)O)cc(S(=O)(=O)O)cc21)C(=O)Nc1ccc2nc(C3=N[C@@H](C(=O)NCCCOc4ccc5nc(C#N)ccc5c4)CS3)sc2c1 [C-SNAF]
- selectivity of activation by caspase-7 [1]: high selectivity of the probe toward effector caspases-3 and -7
- increase in Cy5.5 intensity of DOX-induced apoptotic cells compared to no probe or control probes [2]: ~4 fold
- activation by legumain (legumain [3]): neither lysosomal cysteine proteases cathepsin B nor legumain could significantly activate

SMILES: CCSSCC(NC(=O)C(CC(=O)O)NC(=O)C(NC(=O)C(CCC(=O)O)NC(=O)C(CC(=O)O)NC(C)=O)C(C)C)C(=O)NC(CCCCNC(=O)CN1CCN(CC(=O)[O-])CCN(CC(=O)[O-])CCN(CC(=O)[O-])CC1)C(=O)Nc1ccc2nc(C3=NC(C(=O)NCCCOc4ccc5nc(C#N)ccc5c4)CS3)sc2c1.[Gd+3] (centres unmarked) [probe 15] (Ac-DEVDC(SEt)K(DOTA)[X1]-X2; configuration not given here)
- T1 value after incubation with caspase-9 (caspase-9): No reduced T1 value
- T1 value after incubation with legumain (legumain [4]): No reduced T1 value
- time of maximum SI enhancement in treated tumors after administration (subcutaneous HeLa tumors; 0.1 mmol kg^−1 i.v.): 40 min
- % difference in tumor SI enhancement, treated versus baseline (subcutaneous HeLa tumors; 20 min): 62%
- % difference in tumor SI enhancement, treated versus baseline (subcutaneous HeLa tumors; 120 min): 169%
- SI enhancement in treated mice higher than with 1-ctrl (19) (subcutaneous HeLa tumors; 120 min after injection): 77%
- Gd uptake in tumors (ICP-MS) (subcutaneous HeLa tumors; mouse, in vivo): higher Gd level in treated tumors
- reduction of T1 value in STS-treated versus non-treated cell pellets (HeLa cell pellets): about 3 fold
